# Data reported in patent publication US8415469B2, “Compounds and methods for kinase modulation, and indications therefor” (Plexxikon Inc., priority 2005, dated 2013).
# Experiments:
# Assay type in all cases: biochemical
# Flt1 = target: T1, Flt1 (Homo sapiens, UniProt P17948); experiment: AlphaScreen kinase assay, Flt1; settings: read-out: IC50, activity toward kinase Flt1
# T1 construct: P1826.pETN6 BI-PTP FLT1 M799-D1165-X WT; His6 (N); made in house; host or cells: E. coli (PTP1B co-expressed)
# T1 sequence (P17948 with tags, fused parts or gaps): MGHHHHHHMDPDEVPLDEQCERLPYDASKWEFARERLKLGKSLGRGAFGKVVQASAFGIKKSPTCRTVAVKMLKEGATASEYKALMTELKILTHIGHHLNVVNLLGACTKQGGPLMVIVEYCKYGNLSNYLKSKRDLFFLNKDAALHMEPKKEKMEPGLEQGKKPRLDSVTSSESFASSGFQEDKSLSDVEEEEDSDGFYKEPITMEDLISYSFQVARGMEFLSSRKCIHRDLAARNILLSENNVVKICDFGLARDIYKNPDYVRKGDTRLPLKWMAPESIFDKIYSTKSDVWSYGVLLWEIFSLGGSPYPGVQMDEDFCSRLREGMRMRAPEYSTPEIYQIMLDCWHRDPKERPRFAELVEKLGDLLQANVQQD
# IKK beta = target: T2, IKK beta (Homo sapiens, UniProt O14920); experiment: AlphaScreen kinase assay, IKK beta; settings: read-out: IC50, activity toward kinase IKK beta
# T2 sequence (O14920 1-756): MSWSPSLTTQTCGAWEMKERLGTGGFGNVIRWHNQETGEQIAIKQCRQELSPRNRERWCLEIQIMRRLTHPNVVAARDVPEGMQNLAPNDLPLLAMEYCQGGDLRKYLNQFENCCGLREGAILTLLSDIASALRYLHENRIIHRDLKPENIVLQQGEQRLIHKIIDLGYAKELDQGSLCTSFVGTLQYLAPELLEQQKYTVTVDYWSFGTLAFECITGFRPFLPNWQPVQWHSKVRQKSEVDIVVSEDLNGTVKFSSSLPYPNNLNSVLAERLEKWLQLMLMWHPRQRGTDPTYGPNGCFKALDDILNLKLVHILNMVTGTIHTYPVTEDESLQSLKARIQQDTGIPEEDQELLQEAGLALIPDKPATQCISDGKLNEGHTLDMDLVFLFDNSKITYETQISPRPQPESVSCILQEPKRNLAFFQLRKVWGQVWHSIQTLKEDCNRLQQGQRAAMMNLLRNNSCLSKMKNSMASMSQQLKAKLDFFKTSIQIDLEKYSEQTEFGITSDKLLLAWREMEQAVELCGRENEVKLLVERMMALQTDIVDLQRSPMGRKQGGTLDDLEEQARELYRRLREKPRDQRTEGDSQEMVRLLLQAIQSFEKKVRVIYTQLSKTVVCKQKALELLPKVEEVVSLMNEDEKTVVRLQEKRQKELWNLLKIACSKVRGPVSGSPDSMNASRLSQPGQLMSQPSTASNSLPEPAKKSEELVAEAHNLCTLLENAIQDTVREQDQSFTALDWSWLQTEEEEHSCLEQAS
# Protocol: AlphaScreen assays were done using compounds dissolved in DMSO to a concentration of 20 mM. The compounds were diluted accordingly to the desired final concentrations in each sample well, using 1:3 serial dilution for a total of 8 concentration points. Plates were prepared such that each kinase reaction is 20 μl in 1× kinase buffer, 5% DMSO and 10 μM ATP. After incubation of the kinase reaction for 1 hour at room temperature, 5 μl of donor beads in stop buffer (50 mM EDTA in 1× kinase buffer) was added, the sample was mixed and incubated for 20 minutes at room temperature before adding 5 μl of acceptor beads in stop buffer. The samples were incubated for 60 minutes at room temperature and the signal per well was read on AlphaQuest reader.
# Kit = target: T3, Kit (Homo sapiens, UniProt P10721); experiment: AlphaScreen kinase assay, Kit; settings: read-out: IC50, activity toward kinase Kit
# T3 construct: P1332.N6 BI PTP KIT M552-K948-X COD; His6 (N); made in house; host or cells: E. coli (PTP1B co-expressed)
# T3 sequence (P10721 with tags, fused parts or gaps): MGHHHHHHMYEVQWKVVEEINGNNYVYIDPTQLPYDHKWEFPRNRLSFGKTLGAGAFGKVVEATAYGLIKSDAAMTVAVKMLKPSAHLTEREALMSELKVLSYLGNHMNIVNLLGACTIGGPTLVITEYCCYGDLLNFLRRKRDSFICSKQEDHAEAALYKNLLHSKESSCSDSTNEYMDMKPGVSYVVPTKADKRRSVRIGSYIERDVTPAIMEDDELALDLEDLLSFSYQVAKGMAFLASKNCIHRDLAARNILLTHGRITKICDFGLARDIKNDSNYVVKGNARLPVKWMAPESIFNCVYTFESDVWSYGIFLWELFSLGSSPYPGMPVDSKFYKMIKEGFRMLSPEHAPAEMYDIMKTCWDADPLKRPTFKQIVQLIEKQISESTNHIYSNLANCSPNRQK
# Gsk3β = Gsk3β (Homo sapiens, UniProt P49841); experiment: AlphaScreen kinase assay, Gsk3β; settings: read-out: IC50, activity toward kinase Gsk3β
# Chain of Gsk3β (P49841 whole entry): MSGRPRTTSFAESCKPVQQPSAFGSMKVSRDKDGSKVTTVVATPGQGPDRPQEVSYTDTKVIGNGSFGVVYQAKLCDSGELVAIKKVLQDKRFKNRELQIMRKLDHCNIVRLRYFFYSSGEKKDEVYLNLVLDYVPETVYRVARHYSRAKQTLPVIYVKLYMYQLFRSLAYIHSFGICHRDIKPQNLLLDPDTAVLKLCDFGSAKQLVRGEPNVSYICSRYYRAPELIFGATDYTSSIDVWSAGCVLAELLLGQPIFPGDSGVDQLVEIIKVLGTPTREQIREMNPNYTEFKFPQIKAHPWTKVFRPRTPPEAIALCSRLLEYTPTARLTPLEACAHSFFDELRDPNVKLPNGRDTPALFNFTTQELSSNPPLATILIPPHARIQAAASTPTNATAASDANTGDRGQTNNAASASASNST
# From the text: AlphaScreen assay was used to screen additional kinases. The assay is similarly dependent on the phosphorylation of a peptide substrate. In this assay, an antibody that recognizes phosphorylated substrate is bound to an acceptor bead. The peptide substrate is attached to biotin, which binds to a donor head that contains streptavidin. Thus phosphorylated substrate is bound by antibody and streptavidin, bringing the donor and acceptor heads into close proximity when kinase is not inhibited. The donor produces singlet oxygen which results in emission from the acceptor when they are in close proximity. Conversely, when kinase is inhibited, the donor and acceptor beads are not associated and the emission from the acceptor is reduced.
# AlphaScreen assays were done using compounds dissolved in DMSO to a concentration of 20 mM. The compounds were diluted accordingly to the desired final concentrations in each sample well, using 1:3 serial dilution for a total of 8 concentration points.
# MAP2K1 = target: T4, MAP2K1 (Homo sapiens, UniProt Q02750); experiment: Z'-Lyte FRET kinase assay (Invitrogen), MAP2K1; settings: read-out: IC50, activity toward kinase MAP2K1
# T4 construct: purchased Invitrogen (assay run by Invitrogen)
# T4 sequence (Q02750 whole entry): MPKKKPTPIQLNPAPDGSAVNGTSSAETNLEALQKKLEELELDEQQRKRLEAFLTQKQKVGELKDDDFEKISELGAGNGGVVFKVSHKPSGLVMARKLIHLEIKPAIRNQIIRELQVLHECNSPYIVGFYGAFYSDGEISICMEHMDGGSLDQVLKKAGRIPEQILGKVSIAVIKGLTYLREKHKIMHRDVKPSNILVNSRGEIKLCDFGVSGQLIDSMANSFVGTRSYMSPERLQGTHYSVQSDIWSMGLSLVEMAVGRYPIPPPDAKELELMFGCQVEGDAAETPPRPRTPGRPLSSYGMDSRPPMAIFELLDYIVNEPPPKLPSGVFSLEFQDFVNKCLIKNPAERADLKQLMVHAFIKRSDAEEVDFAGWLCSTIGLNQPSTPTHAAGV
# From the text: For example, direct radiometric, indirect FRET or AlphaScreen assays may be used to assess the level of phosphorylation of a substrate in the presence of test compounds in order to determine the inhibitory affect of the compound on the kinase. […] For these assays, compounds of the invention were screened by Invitrogen using Z′-Lyte™ kinase assay.
# Briefly, the Invitrogen kinase assay involves use of a specific peptide substrate optimized for each kinase, containing a fluorophore at each end that make up the FRET pair. The peptide sensitivity to proteolytic cleavage depends on phosphorylation of the peptide. Non-phosphorylated peptide is cleaved by a protease while peptide phosphorylated by the kinase is not cleaved. Cleavage of the peptide disrupts the FRET between the donor (coumarin) and acceptor (fluorescein) fluorophores, resulting in an increase in the ratio of donor emission to acceptor emission. The emission ratio of coumarin to fluorescein is used to assess the reaction progress. […] Thus, the assay involves a kinase reaction in the presence of varying concentrations of a given compound, a development reaction with site specific protease, and detection of the fluorescent emission ratio of coumarin and fluorscein. […] Reaction conditions for each kinase are determined to provide optimal reaction times, incubation temperature, kinase and ATP concentrations. Test samples are made up in 1× kinase buffer (50 mM HEPES pH 7.5, 50 mM MgCl2, 5 mM EGTA, 0.05% BRIJ-35) and compound at desired concentration prepared in DMSO such that the final DMSO is 1%. […] All kinase except for MAP2K1 were at 10 μM ATP in the kinase reaction, while MAP2K1 was at 100 μM. Samples are mixed and the kinase reaction is incubated 1 hour at room temperature, after which 5 μl of development solution is added and mixed. After incubation for another 1 hour at room temperature, 5 μl of stop reagent is added to each sample and mixed. The fluorescence signals are measured to determine the emission ratio.
# Kdr = target: T5, Kdr (Homo sapiens, UniProt P35968); experiment: Z'-Lyte FRET kinase assay (Invitrogen), Kdr; settings: read-out: IC50, activity toward kinase Kdr
# T5 construct: purchased Invitrogen (assay run by Invitrogen)
# T5 sequence (P35968 20-1356): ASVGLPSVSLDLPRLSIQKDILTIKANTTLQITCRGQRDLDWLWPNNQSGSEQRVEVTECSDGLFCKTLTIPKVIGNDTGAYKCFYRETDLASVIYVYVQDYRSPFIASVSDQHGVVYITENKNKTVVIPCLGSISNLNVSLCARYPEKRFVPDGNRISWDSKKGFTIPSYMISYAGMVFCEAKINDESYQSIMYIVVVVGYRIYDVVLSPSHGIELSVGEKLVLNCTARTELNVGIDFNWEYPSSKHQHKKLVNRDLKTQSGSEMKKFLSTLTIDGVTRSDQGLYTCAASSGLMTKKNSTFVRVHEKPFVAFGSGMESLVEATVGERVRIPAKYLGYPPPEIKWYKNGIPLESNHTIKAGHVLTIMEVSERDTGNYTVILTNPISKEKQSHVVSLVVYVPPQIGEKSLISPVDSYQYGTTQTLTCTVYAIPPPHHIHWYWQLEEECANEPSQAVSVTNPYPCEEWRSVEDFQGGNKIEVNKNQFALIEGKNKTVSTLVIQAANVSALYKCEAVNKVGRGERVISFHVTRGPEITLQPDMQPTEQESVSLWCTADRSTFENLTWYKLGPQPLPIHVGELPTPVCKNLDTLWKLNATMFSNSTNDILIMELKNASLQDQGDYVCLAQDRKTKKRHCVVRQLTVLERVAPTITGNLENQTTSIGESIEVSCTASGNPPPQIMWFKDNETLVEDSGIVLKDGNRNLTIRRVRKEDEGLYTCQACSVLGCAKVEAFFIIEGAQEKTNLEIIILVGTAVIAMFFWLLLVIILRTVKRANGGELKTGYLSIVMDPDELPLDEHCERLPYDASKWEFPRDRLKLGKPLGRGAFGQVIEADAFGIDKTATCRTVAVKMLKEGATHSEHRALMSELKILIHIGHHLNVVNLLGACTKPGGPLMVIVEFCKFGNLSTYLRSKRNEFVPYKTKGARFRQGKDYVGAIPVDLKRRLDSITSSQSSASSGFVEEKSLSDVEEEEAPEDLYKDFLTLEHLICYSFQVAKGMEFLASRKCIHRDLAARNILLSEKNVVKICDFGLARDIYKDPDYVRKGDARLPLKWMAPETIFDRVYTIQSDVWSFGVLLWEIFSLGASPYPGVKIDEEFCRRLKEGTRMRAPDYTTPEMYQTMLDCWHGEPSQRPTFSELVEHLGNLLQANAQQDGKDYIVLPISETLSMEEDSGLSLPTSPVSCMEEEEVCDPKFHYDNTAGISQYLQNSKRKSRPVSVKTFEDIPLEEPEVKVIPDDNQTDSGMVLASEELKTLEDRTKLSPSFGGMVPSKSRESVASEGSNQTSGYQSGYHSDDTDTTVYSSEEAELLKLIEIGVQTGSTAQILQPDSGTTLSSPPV
# Btk = target: T6, Btk (Homo sapiens, UniProt Q06187); experiment: Z'-Lyte FRET kinase assay (Invitrogen), Btk; settings: read-out: IC50, activity toward kinase Btk
# T6 construct: purchased Invitrogen (assay run by Invitrogen)
# T6 sequence (Q06187 whole entry): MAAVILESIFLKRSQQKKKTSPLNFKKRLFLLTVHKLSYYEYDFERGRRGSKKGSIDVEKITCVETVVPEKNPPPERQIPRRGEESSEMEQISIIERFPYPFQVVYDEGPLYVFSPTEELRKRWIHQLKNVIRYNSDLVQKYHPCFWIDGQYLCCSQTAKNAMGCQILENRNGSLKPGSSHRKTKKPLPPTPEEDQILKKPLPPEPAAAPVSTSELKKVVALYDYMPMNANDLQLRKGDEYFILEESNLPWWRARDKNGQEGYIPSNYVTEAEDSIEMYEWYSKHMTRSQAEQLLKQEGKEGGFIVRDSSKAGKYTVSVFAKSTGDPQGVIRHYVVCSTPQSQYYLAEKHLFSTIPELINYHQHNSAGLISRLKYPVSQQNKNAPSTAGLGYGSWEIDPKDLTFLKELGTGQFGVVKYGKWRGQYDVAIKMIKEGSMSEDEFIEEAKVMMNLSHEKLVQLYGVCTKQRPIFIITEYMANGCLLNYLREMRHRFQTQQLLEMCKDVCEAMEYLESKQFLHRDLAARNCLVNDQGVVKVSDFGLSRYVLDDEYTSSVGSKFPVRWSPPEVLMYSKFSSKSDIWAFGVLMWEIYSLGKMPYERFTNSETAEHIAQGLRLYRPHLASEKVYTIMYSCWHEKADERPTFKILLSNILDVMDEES
# Stk6 = target: T7, Stk6 (Homo sapiens, UniProt O14965); experiment: Z'-Lyte FRET kinase assay (Invitrogen), Stk6; settings: read-out: IC50, activity toward kinase Stk6
# T7 construct: purchased Invitrogen (Carlsbad, Calif.), screening service
# T7 sequence (O14965 1-403): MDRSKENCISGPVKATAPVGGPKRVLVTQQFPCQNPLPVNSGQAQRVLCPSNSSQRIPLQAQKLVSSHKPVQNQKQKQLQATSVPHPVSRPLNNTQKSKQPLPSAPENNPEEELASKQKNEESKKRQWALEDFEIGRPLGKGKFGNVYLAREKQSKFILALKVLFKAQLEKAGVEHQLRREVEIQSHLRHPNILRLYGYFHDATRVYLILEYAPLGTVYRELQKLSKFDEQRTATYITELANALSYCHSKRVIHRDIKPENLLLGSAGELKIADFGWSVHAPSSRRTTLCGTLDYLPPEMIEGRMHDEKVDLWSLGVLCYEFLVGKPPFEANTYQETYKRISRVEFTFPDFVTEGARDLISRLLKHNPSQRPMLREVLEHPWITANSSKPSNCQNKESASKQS
# Yes = target: T8, Yes (Homo sapiens, UniProt P07947); experiment: Z'-Lyte FRET kinase assay (Invitrogen), Yes; settings: read-out: IC50, activity toward kinase Yes
# T8 construct: purchased Invitrogen (Carlsbad, Calif.), screening service
# T8 sequence (P07947 whole entry): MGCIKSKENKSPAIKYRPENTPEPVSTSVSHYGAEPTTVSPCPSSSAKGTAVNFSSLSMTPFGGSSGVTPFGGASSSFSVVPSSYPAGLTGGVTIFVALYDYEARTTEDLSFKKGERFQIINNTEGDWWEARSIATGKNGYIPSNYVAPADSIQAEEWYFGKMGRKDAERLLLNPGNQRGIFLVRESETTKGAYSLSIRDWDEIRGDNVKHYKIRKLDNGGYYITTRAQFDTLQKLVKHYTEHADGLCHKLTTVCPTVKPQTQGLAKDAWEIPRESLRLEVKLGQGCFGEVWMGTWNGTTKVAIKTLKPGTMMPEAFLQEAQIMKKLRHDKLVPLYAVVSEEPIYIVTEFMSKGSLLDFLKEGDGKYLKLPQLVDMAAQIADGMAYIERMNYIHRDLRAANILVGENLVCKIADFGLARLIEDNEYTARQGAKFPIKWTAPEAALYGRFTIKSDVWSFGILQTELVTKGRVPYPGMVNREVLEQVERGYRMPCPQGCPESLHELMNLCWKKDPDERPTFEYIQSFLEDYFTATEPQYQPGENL
# How it was run: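 Under a compound concentration curve, the kinase acted on a dual-labelled peptide at 2 μM with ATP at 10 μM for one hour at ambient temperature (buffer pH 7.5, 1% DMSO). Phosphorylation extent came from the emission ratio after protease development.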
# Ret = target: T9, Ret (Homo sapiens, UniProt P07949); experiment: AlphaScreen kinase assay, Ret; settings: read-out: IC50, activity toward kinase Ret
# T9 construct: P1378.pET-SF BI-PTP RET H661-R1012 HIS; made in house
# T9 sequence (P07949 with tags, fused parts or gaps): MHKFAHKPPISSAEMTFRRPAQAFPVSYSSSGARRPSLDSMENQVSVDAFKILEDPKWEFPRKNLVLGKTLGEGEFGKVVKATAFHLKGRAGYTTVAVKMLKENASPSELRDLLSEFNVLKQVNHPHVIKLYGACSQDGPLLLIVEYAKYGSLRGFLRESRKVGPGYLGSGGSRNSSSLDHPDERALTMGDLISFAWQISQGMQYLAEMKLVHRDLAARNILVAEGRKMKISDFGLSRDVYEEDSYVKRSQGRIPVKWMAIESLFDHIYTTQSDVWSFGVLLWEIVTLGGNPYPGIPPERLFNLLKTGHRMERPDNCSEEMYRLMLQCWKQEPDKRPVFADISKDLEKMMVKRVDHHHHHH
# EphB2 = target: T10, EphB2 (Homo sapiens, UniProt P29323); experiment: Z'-Lyte FRET kinase assay (Invitrogen), EphB2; settings: read-out: IC50, activity toward kinase EphB2
# T10 construct: purchased Invitrogen (assay run by Invitrogen)
# T10 sequence (P29323 19-1055): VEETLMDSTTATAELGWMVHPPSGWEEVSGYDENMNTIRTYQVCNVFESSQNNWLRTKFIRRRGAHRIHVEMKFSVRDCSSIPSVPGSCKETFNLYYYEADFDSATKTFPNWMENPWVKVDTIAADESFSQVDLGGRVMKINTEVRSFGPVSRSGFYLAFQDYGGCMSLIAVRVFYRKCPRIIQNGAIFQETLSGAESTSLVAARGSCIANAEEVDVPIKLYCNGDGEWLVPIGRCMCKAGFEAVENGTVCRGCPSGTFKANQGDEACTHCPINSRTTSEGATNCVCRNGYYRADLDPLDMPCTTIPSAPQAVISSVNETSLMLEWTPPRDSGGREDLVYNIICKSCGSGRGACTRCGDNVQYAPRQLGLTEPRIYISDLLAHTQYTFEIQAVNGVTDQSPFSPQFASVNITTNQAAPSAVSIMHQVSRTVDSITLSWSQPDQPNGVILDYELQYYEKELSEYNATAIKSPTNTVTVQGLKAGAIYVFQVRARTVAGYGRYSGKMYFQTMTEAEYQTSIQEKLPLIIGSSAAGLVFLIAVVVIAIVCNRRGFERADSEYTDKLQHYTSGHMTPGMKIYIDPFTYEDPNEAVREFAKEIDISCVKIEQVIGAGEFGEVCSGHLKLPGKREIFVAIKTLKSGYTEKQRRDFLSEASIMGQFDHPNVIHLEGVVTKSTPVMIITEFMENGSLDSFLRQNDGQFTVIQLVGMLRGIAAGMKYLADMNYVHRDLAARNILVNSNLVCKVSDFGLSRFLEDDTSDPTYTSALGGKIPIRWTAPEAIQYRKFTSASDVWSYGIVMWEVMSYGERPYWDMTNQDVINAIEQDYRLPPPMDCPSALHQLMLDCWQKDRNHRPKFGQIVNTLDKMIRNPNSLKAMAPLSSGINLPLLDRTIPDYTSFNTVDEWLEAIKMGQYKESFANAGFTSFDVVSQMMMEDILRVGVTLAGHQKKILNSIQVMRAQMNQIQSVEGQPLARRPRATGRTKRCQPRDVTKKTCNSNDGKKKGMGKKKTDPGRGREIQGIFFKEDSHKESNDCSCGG
# From the text: The effect of potential modulators of kinase activity can be measured in a variety of different assays known in the art. For example, direct radiometric, indirect FRET or AlphaScreen assays may be used to assess the level of phosphorylation of a substrate in the presence of test compounds in order to determine the inhibitory affect of the compound on the kinase. Invitrogen (Carlsbad, Calif.) uses a FRET based assay for Btk, EGFR, EphB2, Flt3, lrak4, Kdr, MAP2K1, MAPKAPK2, PDGFRB, PKC theta, Stk6 and Yes. For these assays, compounds of the invention were screened by Invitrogen using Z′-Lyte™ kinase assay.
# Briefly, the Invitrogen kinase assay involves use of a specific peptide substrate optimized for each kinase, containing a fluorophore at each end that make up the FRET pair. The peptide sensitivity to proteolytic cleavage depends on phosphorylation of the peptide. Non-phosphorylated peptide is cleaved by a protease while peptide phosphorylated by the kinase is not cleaved. Cleavage of the peptide disrupts the FRET between the donor (coumarin) and acceptor (fluorescein) fluorophores, resulting in an increase in the ratio of donor emission to acceptor emission. The emission ratio of coumarin to fluorescein is used to assess the reaction progress. The extent of phosphorylation is determined from the emission ratio, which is low when the kinase is active (phosphorylated peptide is not cleaved, FRET pair connected) or higher for inhibited kinase (non-phosphorylated peptide is cleaved, FRET pair separated). Thus, the assay involves a kinase reaction in the presence of varying concentrations of a given compound, a development reaction with site specific protease, and detection of the fluorescent emission ratio of coumarin and fluorscein. […] Reaction conditions for each kinase are determined to provide optimal reaction times, incubation temperature, kinase and ATP concentrations. Test samples are made up in 1× kinase buffer (50 mM HEPES pH 7.5, 50 mM MgCl2, 5 mM EGTA, 0.05% BRIJ-35) and compound at desired concentration prepared in DMSO such that the final DMSO is 1%. […] Typically, assay plates are prepared to 10 μl final volume per sample, adding 2.5 μl of compound at 4× the desired concentration in 4% DMSO (serial dilution of compound provides concentration curve), 5 μl of the desired kinase mixed with Z′-LYTE™ peptide substrate (2× in 2× kinase buffer, final peptide at 2 μM), and 2.5 μl of 4×ATP solution. All kinase except for MAP2K1 were at 10 μM ATP in the kinase reaction, while MAP2K1 was at 100 μM. Samples are mixed and the kinase reaction is incubated 1 hour at room temperature, after which 5 μl of development solution is added and mixed. After incubation for another 1 hour at room temperature, 5 μl of stop reagent is added to each sample and mixed. The fluorescence signals are measured to determine the emission ratio.
# B-Raf V600E = target: T11, B-Raf V600E (Homo sapiens, UniProt P15056, V600E); experiment: AlphaScreen kinase assay, B-Raf V600E; settings: read-out: IC50, activity toward kinase B-Raf V600E
# T11 construct: P4254. pFastBacBD-CDC37 BRAF D437-K722-X, V600E; His6 with pFastBac HT leader (TEV site) (N); made in house; host or cells: Sf9 (baculovirus; chaperone CDC37 co-expressed)
# T11 sequence (P15056 with tags, fused parts or gaps V600E): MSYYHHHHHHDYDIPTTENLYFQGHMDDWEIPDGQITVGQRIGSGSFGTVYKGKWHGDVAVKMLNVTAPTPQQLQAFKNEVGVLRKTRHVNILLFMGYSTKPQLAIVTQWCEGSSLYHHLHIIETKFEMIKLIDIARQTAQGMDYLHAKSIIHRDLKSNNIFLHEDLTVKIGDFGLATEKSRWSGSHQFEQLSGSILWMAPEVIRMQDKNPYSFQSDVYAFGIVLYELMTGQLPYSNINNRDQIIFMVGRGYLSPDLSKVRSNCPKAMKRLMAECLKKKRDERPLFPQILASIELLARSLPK
compound,measurement,setting,value
CSc1cccc(-c2c[nH]c3ncccc23)c1 [Compound P-0315],IC50,Flt1,≤ 10 µM
same,IC50,IKK beta,≤ 10 µM
same,IC50,Kit,≤ 10 µM
c1cc(-c2ccsc2)c2cc[nH]c2n1 [Compound P-0629],IC50,Flt1,≤ 10 µM
same,IC50,IKK beta,≤ 10 µM
COc1ccc(-c2c[nH]c3ncccc23)cc1F [Compound P-0690],IC50,IKK beta,≤ 10 µM
same,IC50,Kit,≤ 10 µM
O=C(CCBr)c1c[nH]c2ncccc12 [Compound P-0081],IC50,Gsk3β,≤ 10 µM
same,IC50,MAP2K1,≤ 10 µM
same,IC50,Kdr,≤ 10 µM
same,IC50,Btk,≤ 10 µM
same,IC50,Stk6,≤ 10 µM
same,IC50,Yes,≤ 10 µM
CCS(=O)(=O)c1ccc(-c2c(C)[nH]c3ncccc23)cc1 [Compound P-1223],IC50,IKK beta,≤ 10 µM
COc1ccc(C#Cc2ccnc3[nH]ccc23)cc1 [Compound P-0920],IC50,IKK beta,≤ 10 µM
c1ccc2oc(-c3ccnc4[nH]ccc34)cc2c1 [Compound P-0790],IC50,IKK beta,≤ 10 µM
C[C@H]1CN(c2ccc(-c3ccnc4[nH]ccc34)cn2)CCN1 [Compound P-0410],IC50,IKK beta,≤ 10 µM
NC(=O)c1ccc(-c2ccnc3[nH]cc(C(=O)c4cccc(Cl)c4Cl)c23)cc1 [Compound P-0053],IC50,Ret,≤ 10 µM
same,IC50,EphB2,≤ 10 µM
same,IC50,B-Raf V600E,≤ 10 µM
same,IC50,Gsk3β,≤ 10 µM
same,IC50,Kdr,≤ 10 µM
same,IC50,Btk,≤ 10 µM
same,IC50,Yes,≤ 10 µM
